In series [1] the test system is Plasmodium falciparum Dd2. The experiment in a line: Inhibition of voltage-gated calcium channel in Plasmodium flaciparum Dd2 cells assessed as reversal of choloroquine resistance at 1 uM relative to control. The arrangement: scale not given: the % may be the effect or the level left.
The test system of series [2] is Plasmodium falciparum Dd2. Briefly: Inhibition of voltage-gated calcium channel in Plasmodium flaciparum Dd2 cells assessed as potentiation of choloroquine induced antimalarial activity by measuring ratio of chloroquine IC50 in presence to absence of compound at 1 uM.
In series [3] the test system is Plasmodium falciparum Dd2. The experiment in a line: Inhibition of voltage-gated calcium channel in Plasmodium flaciparum Dd2 cells assessed as reversal of choloroquine resistance at 0.8 uM relative to control. Also noted: scale not given: the % may be the effect or the level left.
Series [4] has as its system Plasmodium falciparum Dd2. The experiment in a line: Inhibition of voltage-gated calcium channel in Plasmodium flaciparum Dd2 cells assessed as reversal of choloroquine resistance at 0.5 uM relative to control. Also noted: scale not given: the % may be the effect or the level left.
In series [5] the test system is Plasmodium falciparum NF54. Briefly: Inhibition of voltage-gated calcium channel in Plasmodium flaciparum NF54 cells assessed as potentiation of choloroquine induced antimalarial activity by measuring chloroquine IC50 in presence of compound at 1 uM.
Series [6] has as its system CHO. The experiment in a line: Cytotoxicity against CHO cells by MTT assay. The series is classed as cell-based. The following applies: Cricetulus griseus. In general terms: Tetrazolium dyes change colour on reduction, which living cells bring about.
Series [7] can be described thus: Selectivity index, ratio of IC50 for CHO cells to IC50 for chloroquine sensitive Plasmodium falciparum NF54. The series is classed as toxicity, cell-based. To be noted: hamster, read-out: Ratio IC50.
The subject of series [8] is Plasmodium falciparum. Briefly: Antiplasmodial activity against multidrug resistant Plasmodium falciparum Dd2 by spectroscopic method. The series is classed as functional, organism-based.
Series [9] has as its system Plasmodium falciparum. Briefly: Antiplasmodial activity against chloroquine sensitive Plasmodium falciparum NF54 by spectroscopic method. The series is classed as functional, organism-based.
The species named for series [10] is Rattus norvegicus. The experiment in a line: Inhibition of voltage-gated calcium channel in Wistar rat synaptoneurosomes at 100 uM after 30 mins by fluorescent ratiometric indicator method.
Series [11] in a line: Inhibition of voltage-gated calcium channel in Wistar rat synaptoneurosomes after 30 mins by fluorescent ratiometric indicator method.

Activity calls are given as the source filed them. The rule behind the calls is not given here.

Take `COc1ccc(CCN(C)CCCC(C#N)(c2ccc(OC)c(OC)c2)C(C)C)cc1OC` (stereo unspecified): the Activity in [1] is 73%; in series [3], 63%; in [4] it was 47%. The Ratio IC50 in series [2] was determined as 0.27.
With `OC12C3C4CC5C6C4C1C6C(C53)N2Cc1ccccc1` (stereo unspecified), the Activity in [1] worked out at 64%. In series [2], the Ratio IC50 amounted to 0.36. Further, in series [5], the result was inactive. Also, the IC50 in series [6] turned out to be 84.8 µM; in [8], 13.3 µM; in series [9], 7.62 µM; in series [11], 35 µM. The selectivity ratio in series [7] was found to be 11.1. Further, the inhibition in [10] was more than 95%.
`c1ccc(CNC23OC4C5C6CC(C7C6C4C72)C53)cc1` (stereo unspecified): the outcome in series [5] was inactive. Further, the IC50 in series [6] is more than 10 µM; in series [8], more than 10 µM; in [9], more than 10 µM; in series [11] it was 86 µM. The inhibition in [10] stood at 52%.
For `O=[N+]([O-])c1ccc(CNC23OC4C5C6CC(C7C6C4C72)C53)cc1` (stereo unspecified), in series [1], the Activity came to 25%. The Ratio IC50 in series [2] was found to be 0.65. Moreover, in series [5], the outcome was inactive. Besides, the results for the half-maximal inhibitory concentration (IC50) in series [6], in [8] and in series [9] were more than 322 µM, 54.8 µM and 0.718 µM, respectively. Besides, the selectivity ratio in series [7] is more than 449. The inhibition in [10] was 48%.
Consider `O=[N+]([O-])c1ccc(NCCCNC23CC4CC(CC(C4)C2)C3)c([N+](=O)[O-])c1`, for which the IC50 in series [6] amounted to 8.01 µM; in [8] it was 18.8 µM; in [9], 1.13 µM. The selectivity ratio in [7] was 7.1. Also, in series [10], the inhibition was 12%.
Regarding `CN(C)c1cccc2cc(S(=O)(=O)NCCN3C4C5C6CC7C8C6C4C8C3(O)C75)ccc12` (stereo unspecified), the Activity in [1] worked out at 81%. Besides, the Ratio IC50 in [2] was determined as 0.19. For the same molecule, the result in series [5] was inactive. The IC50 is 119 µM in [6], 6.25 µM in [8], 3.76 µM in series [9] and 0.48 µM in series [11]. In series [7], the selectivity ratio came to 31.7. In addition, in series [10], the inhibition is more than 95%.
For `c1ccc(CNC23CC4CC(CC(C4)C2)C3)cc1`, the IC50 in [6] is more than 414 µM; in [9], 126 µM. In series [7], the selectivity ratio was more than 3.3. Also, the inhibition in series [10] stood at 40%.
In the case of `CN(C)c1cccc2c(S(=O)(=O)NCCCNC34CC5CC(CC(C5)C3)C4)cccc12`, in series [1], the Activity was determined as 65%. The Ratio IC50 in series [2] amounted to 0.35. Further, in series [5], the result was inactive. Besides, the IC50 in [6] amounted to 7.4 µM; in series [8], 7.01 µM; in series [9], 2.83 µM; in series [11] it was 0.27 µM. Besides, the selectivity ratio in [7] came out at 2.6. Moreover, the inhibition in series [10] was more than 95%.
For the molecule `O=[N+]([O-])c1ccc(CNC23CC4CC(CC(C4)C2)C3)cc1`, the IC50 was more than 349 µM in series [6] and 74 µM in [9]. For the same molecule, the selectivity ratio in [7] was more than 4.7. Besides, in [10], the inhibition was found to be 86%.
With `O=C(OCCNC12OC3C4C5CC(C6C5C3C61)C42)c1cccc(/C=C/[N+](=O)[O-])c1` (stereo unspecified), the Activity in series [1] worked out at 45%. For the same molecule, the Ratio IC50 in [2] amounted to 0.55. The result in [5] was inactive. Also, the IC50 was more than 254 µM in [6], 34.5 µM in series [8], 26.2 µM in series [9] and 0.98 µM in series [11]. In addition, the selectivity ratio in series [7] is more than 9.7. Moreover, the inhibition in [10] is more than 95%.
On to `COc1ccc(CNC23CC4CC(CC(C4)C2)C3)cc1`, for which the IC50 was more than 368 µM in [6] and 39.4 µM in series [9]. Further, in series [7], the selectivity ratio is more than 9.4. In series [10], the inhibition came out at 71%.
For `N#Cc1c2ccccc2cn1CCCNC12CC3CC(CC(C3)C1)C2`, the Activity in series [1] amounted to 42%. For the same molecule, the Ratio IC50 in series [2] is 0.58. The result in series [5] was inactive. Moreover, the 50% inhibitory concentration (IC50) worked out at 8.2 µM in series [6], 3.89 µM in [8], 3.83 µM in series [9] and 100 µM in series [11]. In [7], the selectivity ratio worked out at 2.1. In series [10], the inhibition stood at 54%.
Regarding `COCCOC(=O)C1=C(C)NC(C)=C(C(=O)OC(C)C)C1c1cccc([N+](=O)[O-])c1` (stereo unspecified) [NIMODIPINE], the concentration for half-maximal inhibition (IC50) in [11] amounted to 0.008 µM.
Molecule `CCN(CC)CCCC(C)Nc1ccnc2cc(Cl)ccc12` (stereo unspecified) [CHLOROQUINE] yielded an IC50 in [6] of 35.8 µM.
On to `OC12C3C4CC5C6C4C1C6C(C53)N2CCN1CCN(Cc2ccccc2)CC1` (stereo unspecified), for which the Activity in [1] came to 19%. Moreover, in series [2], the Ratio IC50 was determined as 0.81. Further, the result in series [5] was inactive. Moreover, the 50% inhibitory concentration (IC50) is more than 265 µM in series [6], 6.28 µM in series [8], 9.09 µM in [9] and 100 µM in series [11]. Further, the selectivity ratio in series [7] was more than 29.1. For the same molecule, the inhibition in series [10] is 51%.

One may read the IC50 as the midpoint of a concentration-inhibition curve. In general, inhibition refers to the relative decrease from the control value, in per cent.

For the origin of these results see ChEMBL document CHEMBL3758159, “Polycyclic amines as chloroquine resistance modulating agents in Plasmodium falciparum” (Bioorg Med Chem Lett, 2016).
